The results in this text go back to US10815534B2, “Methods and materials for treating estrogen receptor positive breast cancer” (Mayo Foundation for Medical Education and Research, priority 2016, dated 2020).

The test system of one assay is ERα+ breast cancer cells. Put plainly: Sensitization of ERα+ breast cancer cells by overexpression of CSMD1. The format is cell-based. The conditions noted are these: ERα+ breast cancer cells overexpressing CSMD1.
For assay [1], the system named is letrozole resistant cells. Put plainly: Sensitization of letrozole resistant cells by overexpression of CSMD1. The conditions noted are these: letrozole resistant cells overexpressing CSMD1. The format is cell-based.
Assay [2] has as its system human lymphoblastoid cells. Put plainly: Sensitivity of human lymphoblastoid cell lines selected by rs6990851 genotype (AA, AG, GG) to aromatase inhibitors. The note with it: rs6990851 GG versus AA and AG lymphoblastoid cells. It counts as cell-based.
Assay [3] concerns the target T1, ERα (Homo sapiens, UniProt P03372).
T1 sequence (P03372 1-595): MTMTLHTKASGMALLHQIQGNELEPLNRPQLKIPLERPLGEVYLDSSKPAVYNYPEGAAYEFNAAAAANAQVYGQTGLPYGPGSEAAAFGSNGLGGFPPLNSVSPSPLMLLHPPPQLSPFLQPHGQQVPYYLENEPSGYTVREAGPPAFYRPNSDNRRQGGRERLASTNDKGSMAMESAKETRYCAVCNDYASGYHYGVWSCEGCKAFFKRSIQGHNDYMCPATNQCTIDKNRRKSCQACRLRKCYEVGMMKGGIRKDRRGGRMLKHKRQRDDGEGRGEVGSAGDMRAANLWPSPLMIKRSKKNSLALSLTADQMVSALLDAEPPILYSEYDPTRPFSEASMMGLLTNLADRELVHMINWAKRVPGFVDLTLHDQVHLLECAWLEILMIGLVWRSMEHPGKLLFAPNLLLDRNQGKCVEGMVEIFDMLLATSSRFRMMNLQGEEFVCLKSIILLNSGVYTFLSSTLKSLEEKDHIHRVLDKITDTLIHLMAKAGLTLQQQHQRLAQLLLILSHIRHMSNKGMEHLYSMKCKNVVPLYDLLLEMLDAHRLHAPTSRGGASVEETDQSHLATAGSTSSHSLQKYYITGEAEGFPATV
The note with it: 0-40 μM, traces above the background.

In assay [4] the target is T1, ERα. The conditions noted are these: FIG. 7, ERα/GADPH fold change.

For `CC(C)(C#N)c1cc(Cn2cncn2)cc(C(C)(C)C#N)c1` [anastrozole], the “sensitization by CSMD1 overexpression” value (in the assay on ERα+ breast cancer cells; in assay [1]) was “sensitized” throughout. Moreover, in assay [2], the “sensitivity of homozygous GG variant cells to treatment” value is “more sensitive”.
`N#Cc1ccc(C(c2ccc(C#N)cc2)n2cncn2)cc1` [letrozole]: on ERα [3], the “direct binding to ERα (SPR sensograms)” value was “No interactions were observed”. In addition, in assay [1], the “sensitization by CSMD1 overexpression” value is given as “not”. Moreover, the ERα degradation entry at ERα [4] is “not”. Besides, in assay [2], the “sensitivity of homozygous GG variant cells to treatment” value is reported as “not observed”.
